This note sets out measurements from patent US9662318B2, “Bitopic muscarinic agonists and antagonists and methods of synthesis and use thereof” (BARRY UNIVERSITY, INC., priority 2012, dated 2017).

In one assay the target is T1, M3 muscarinic receptor (Homo sapiens, UniProt P20309).
T1 construct: host or cells: Chinese hamster ovary cells
Description: Competition with [3H]NMS (equilibrium binding, CHO membranes). The conditions noted are these: for IC50: competition with [^3H]NMS. As to the method:
(§1) All radioligand binding experiments were optimized and carried out as described earlier. Briefly, membranes were incubated in 96-well plates at 30° C. in the incubation medium described. […] Dissociation was initiated by addition of atropine to final concentration of 5 Tested ligands in final concentration of 100 μM were added concurrently with atropine. Incubations were terminated by filtration through Whatman GF/C glass fiber filters (Whatman) using a Brandel cell harvester (Brandel, Gaithersburg, Md., USA). Filters were dried in vacuum for 1 h while heated at 80° C. and then solid scintillator Meltilex A was melted on filters (105° C., 90 s) using a hot plate. The filters were cooled and counted in Wallac Microbeta scintillation counter.
(§2) Inhibition constant KI was calculated as: […]

In another assay the target is T2, M5 muscarinic receptor (Homo sapiens, UniProt P08912).
T2 construct: host or cells: CHO (Chinese hamster ovary) cells, stably transfected
T2 sequence (P08912 1-532): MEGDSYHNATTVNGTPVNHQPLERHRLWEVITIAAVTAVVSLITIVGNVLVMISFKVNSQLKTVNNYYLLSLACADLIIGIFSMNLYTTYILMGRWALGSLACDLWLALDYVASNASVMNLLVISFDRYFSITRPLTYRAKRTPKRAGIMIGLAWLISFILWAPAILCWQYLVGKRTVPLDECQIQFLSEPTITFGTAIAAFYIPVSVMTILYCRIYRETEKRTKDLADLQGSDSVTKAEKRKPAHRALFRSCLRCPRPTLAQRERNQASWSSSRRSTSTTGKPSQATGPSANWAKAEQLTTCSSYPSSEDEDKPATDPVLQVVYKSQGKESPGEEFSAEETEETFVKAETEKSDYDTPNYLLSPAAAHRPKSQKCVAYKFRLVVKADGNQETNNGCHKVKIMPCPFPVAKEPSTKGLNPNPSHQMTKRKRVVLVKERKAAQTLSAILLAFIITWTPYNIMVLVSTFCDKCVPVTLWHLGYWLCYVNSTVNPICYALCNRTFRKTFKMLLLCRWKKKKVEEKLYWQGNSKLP
The assay is described as above. The conditions noted are these: for IC50: competition with [^3H]NMS. The procedure: as §1, §2

Another assay has as its target T3, M1 muscarinic receptor (Homo sapiens, UniProt P11229).
T3 sequence (P11229 1-460): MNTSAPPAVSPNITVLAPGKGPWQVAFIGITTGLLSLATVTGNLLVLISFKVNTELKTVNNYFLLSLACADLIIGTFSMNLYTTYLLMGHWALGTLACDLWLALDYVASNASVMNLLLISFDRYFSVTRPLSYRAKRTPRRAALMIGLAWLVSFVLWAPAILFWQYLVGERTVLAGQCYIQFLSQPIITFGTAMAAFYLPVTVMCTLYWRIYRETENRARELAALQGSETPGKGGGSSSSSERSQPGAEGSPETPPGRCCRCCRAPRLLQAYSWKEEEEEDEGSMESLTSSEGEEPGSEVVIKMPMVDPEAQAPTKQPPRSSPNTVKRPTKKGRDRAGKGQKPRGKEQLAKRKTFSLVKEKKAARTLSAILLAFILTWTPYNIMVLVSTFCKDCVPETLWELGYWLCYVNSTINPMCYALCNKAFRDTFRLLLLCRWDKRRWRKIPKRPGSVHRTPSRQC
Description: Accumulation of inositol phosphates in CHO cells. It is filed as cell-based. The conditions noted are these: ligand 0.1 mM, no carbachol.

Where two headings read alike, the source gives them in different places.

T1 sequence (P20309 whole entry): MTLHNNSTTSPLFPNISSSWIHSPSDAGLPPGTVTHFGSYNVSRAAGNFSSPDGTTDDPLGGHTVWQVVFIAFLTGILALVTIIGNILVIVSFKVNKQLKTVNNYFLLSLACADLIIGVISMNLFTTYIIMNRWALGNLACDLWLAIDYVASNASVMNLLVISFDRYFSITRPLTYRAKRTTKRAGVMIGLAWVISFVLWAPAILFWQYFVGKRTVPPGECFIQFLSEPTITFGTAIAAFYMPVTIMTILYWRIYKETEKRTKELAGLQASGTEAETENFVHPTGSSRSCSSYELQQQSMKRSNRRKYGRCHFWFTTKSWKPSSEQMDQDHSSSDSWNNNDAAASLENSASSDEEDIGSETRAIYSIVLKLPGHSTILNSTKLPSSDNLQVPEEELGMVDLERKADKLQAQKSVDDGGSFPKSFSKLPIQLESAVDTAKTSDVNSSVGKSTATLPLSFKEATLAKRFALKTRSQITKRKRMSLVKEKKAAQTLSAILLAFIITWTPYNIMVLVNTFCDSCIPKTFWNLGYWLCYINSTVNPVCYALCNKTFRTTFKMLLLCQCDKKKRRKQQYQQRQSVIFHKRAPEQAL
Description for M1 muscarinic receptor: Chinese hamster ovary cells stably transfected with the genes of human variants of muscarinic receptors were purchased from Missouri S&T cDNA Resource Center (Rolla, Mo., USA). […] Cells were grown to confluency in 75 cm^2 flasks in Dulbecco's modified Eagle's medium supplemented with 10% fetal bovine serum and 2 million of cells were subcultured to 100 mm Petri dishes. Medium was supplemented with 5 mM butyrate for the last 24 hours of cultivation to increase receptor expression.
Inositolphosphates formation was determined in cells pre-labeled overnight by 0.5 μM [^3H]myo-inositol in 0.3 mL of DMEM (3 μCi/ml) at 37° C. […] Incubation was stopped by removal of incubation buffer and addition 0.2 mL 20% trichloracetic acid (TCA). After 1 h incubation at 4° C., 100 μL, of TCA extracts were taken for measurement. Rest of the TCA was removed, and TCA precipitates were washed with 200 μL TCA and dissolved in 200 μL of 1 M NaOH. After 1 h incubation at 4° C., 100 μL, of NaOH lysates were taken for measurement. Radioactivity in TCA extracts and NaOH lysates were determined by liquid scintillation counting. The rate of inositolphosphates accumulation was calculated as a percentage of the soluble (released) inositolphosphates from the total incorporated radioactivity (sum of radioactivity in NaOH lysates and TCA extracts).
EC50 values are expressed as negative logarithms and EMAX values as folds over basal, Table 7.

Regarding `CCCCOc1ccc(C(=O)OCC[N+]2(C)CCCCC2)cc1.[I-]` [JB-D4, 2-(N-piperidineethyl) p-butoxybenzoate N-methyl iodide], the half-maximal inhibitory concentration (IC50) – broadly, the concentration that gives 50% inhibition – on M3 muscarinic receptor (M3, average of 3, read-out: avg IC50) is 16.9 µM; at M3 muscarinic receptor (M3, experiment 1, read-out: IC50—1), 16.6 µM; at M3 muscarinic receptor (M3, experiment 2, read-out: IC50—2) it was 17.2 µM; on M3 muscarinic receptor (M3, experiment 3, read-out: IC50—3), 16.9 µM; on M5 muscarinic receptor (M5, average of 3, read-out: avg IC50) it was 12.5 µM; at M5 muscarinic receptor (M5, experiment 1, read-out: IC50—1), 12.5 µM. Moreover, the half-inhibitory concentration (IC50) amounted to 11.2 µM at M5 muscarinic receptor (M5, experiment 2, read-out: IC50—2) and 13.7 µM at M5 muscarinic receptor (M5, experiment 3, read-out: IC50—3). In addition, the Ki – broadly, the equilibrium dissociation constant of an inhibitor or competing ligand from its target – amounted to 3.16 µM on M3 muscarinic receptor (read-out: KI) and 2.88 µM on M5 muscarinic receptor (read-out: KI). The “Effect of ligands on basal activity (accumulation of inositol phosphates as percent of accumulation in the absence of the ligand)” value at M1 muscarinic receptor is recorded as 97 ± 2%.
